# According to US20130244929A1 (priority 2010, published 2013):
# Structures can show the parent of a compound that is named as a salt. Where two headings read alike, the source gives them in different places.
# Tests used:
# SpsB = target: T1, SpsB (Staphylococcus aureus, UniProt P0A070); experiment: Inhibition of SpsB enzyme activity (fluorescence-based assay, bacterial membrane fraction); format: biochemical
# T1 construct: using a bacterial membrane fraction as a source of SpsB; from tissue
# T1 sequence (P0A070 1-191): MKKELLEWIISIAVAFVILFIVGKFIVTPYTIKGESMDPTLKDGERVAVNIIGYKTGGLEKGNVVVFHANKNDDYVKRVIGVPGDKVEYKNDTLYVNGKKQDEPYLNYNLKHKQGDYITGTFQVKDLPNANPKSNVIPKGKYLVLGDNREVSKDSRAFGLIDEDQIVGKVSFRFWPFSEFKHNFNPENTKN
# Protocol: Signal peptidase enzyme activity was measured in a fluorescence-based assay using a bacterial membrane fraction as a source of SpsB (See Bruton et al., 2003, Eur J Med Chem 38:351-356). The SpsB substrate is a synthetic lipopeptide, decanoyl-K(DABCYL)-TPTAKA↓ASKKD-D(EDANS)—NH2 (prepared by JPT Peptide Technologies, Berlin, Germany). Assays were performed with 20 μM peptide substrate (Km≈5 μM) and reactions were initiated with enzyme addition (final protein concentration of 0.6 mg/mL). SpsB mediated cleavage of the peptide substrate was detected as an increase in fluorescence (excitation 340 nm/emission 460 nm).
# [1] = test system: MB 5393 (COL), a methicillin-resistant S. aureus strain; experiment: Determination of minimum and synergistic inhibitory concentration; format: cell-based; details: for SIC: presence of imipenem (4 μg/mL); for MIC: Staphylococcus aureus
# Protocol: MB 5393 (COL), a methicillin-resistant S. aureus strain, was inoculated into Trypticase Soy Broth (TSB, BBL) and grown in a humidified incubator for 18 hours with rotary shaking at 220 rpm and kept on ice until used.
# A quantity of imipenem (Merck Chemical Collection) was weighed out and dissolved into sterile 10 mM MOPS buffer at pH 7. This solution was diluted to 1600 μg/mL, 200 μg/mL, and 25 μg/mL and filter-sterilized through a 0.45 μm filter. From these solutions, seven 1:2 serial dilutions were prepared using sterile 10 mM MOPS buffer at pH 7. The final concentration ranges tested were 128 to 2 μg/mL, 16 to […], and 2 to 0.03 μg/mL. The solutions were kept refrigerated until used.
# Test compounds (EXAMPLES 1-67) were prepared in sterile water or DMSO at a concentration of 3.2 mg/mL. From this solution, 11 serial 1:2 dilutions were prepared using sterile water. The final concentration range tested was 64 to 0.0313 μg/mL. The solutions were kept refrigerated until used.
# Two-fold serial dilutions of test compounds were tested in the presence and absence of subinhibitory concentrations of imipenem (4 μg/mL) in 96-well U bottom microliter dishes in microbiological growth media. The plates were inoculated with bacterial cells to a final concentration of ˜5×10^5 CFU/mL. Test plates were incubated stationery at 37° C. for 22-24 hours.
# After 22 hours of incubation, the Minimum inhibitory concentrations (MICs) were determined, defined as the lowest concentration of antibiotic that prevented all visible growth in the absence of imipenem. Synergistic inhibitory concentrations (SICs) were determined, defined as the lowest concentration of antibiotic that prevented all visible growth in the presence of imipenen.
# [2] = MRSA COL, absence of imipenem, 22 hours, read-out: MIC
SMILES,IC50 (SpsB),"SIC ([1]; MRSA COL, 22 hours)","MIC [1, 2]","MIC ([1]; MRSA, 22 h)","IC50 (SpsB; 20 μM peptide substrate, read-out: SpsB IC50)"
"CCCCCCCCCCc1ccc2cc(C(=O)NCCC(=O)N3CCCC3C(=O)N(C)[C@@H]3C(=O)N[C@@H](C)C(=O)N[C@H](C(=O)O)Cc4ccc(O)c(c4)-c4cc3ccc4O)ccc2c1 (stereo in doubt) [EXAMPLE 14, (8S,11S,14S)-3,18-dihydroxy-11-methyl-14-(methyl{[(2R)-1-{3-[(6-decyl-2-naphthoyl)amino]propanoyl}pyrrolidin-2-yl]carbonyl}amino)-10,13-dioxo-9,12-diazatricyclo[13.3.1.1^2,6]icosa-1(19),2(20),3,5,15,17-hexaene-8-carboxylic acid]",< 10 nM,G (G: SIC <0.0625),< 1 µg/mL,,
CCCCCCCc1ccc(-c2ccc(C(=O)NCCC(=O)N[C@@H](CCCCN)C(=O)N(C)[C@@H]3C(=O)N[C@@H](C)C(=O)N[C@H](C(=O)O)Cc4ccc(O)c(c4)-c4cc3ccc4O)cc2)cc1 [EXAMPLE 29],< 10 nM,G (G: SIC <0.0625),,< 1 µg/mL,
CCCCCCCCCc1ccc(-c2ccc(C(=O)NCCC(=O)N[C@@H](CCCCN)C(=O)N(C)[C@@H]3C(=O)N[C@@H](C)C(=O)N[C@H](C(=O)O)Cc4ccc(O)c(c4)-c4cc3ccc4O)c(O)c2)cc1 [EXAMPLE 39],< 10 nM,G (G: SIC <0.0625),,< 1 µg/mL,
CCCCCCCCCc1ccc(-c2cccc3c(C(=O)NCCC(=O)N[C@@H](CCCCN)C(=O)N(C)[C@@H]4C(=O)N[C@@H](C)C(=O)N[C@H](C(=O)O)Cc5ccc(O)c(c5)-c5cc4ccc5O)cnn23)cc1 [EXAMPLE 65],10 to 50 nM,G (G: SIC <0.0625),,1 to 8 µg/mL,
CCCCCCCCCc1ccc(-c2ncc(C(=O)NCCC(=O)N[C@@H](CCCCN)C(=O)N(C)[C@@H]3C(=O)N[C@@H](C)C(=O)N[C@H](C(=O)O)Cc4ccc(O)c(c4)-c4cc3ccc4O)cn2)cc1 [EXAMPLE 26],< 10 nM,G (G: SIC <0.0625),,< 1 µg/mL,
C[C@@H]1NC(=O)[C@@H](N(C)C(=O)[C@H](CCCCN)NC(=O)CCNC(=O)c2ccc(-c3ccc(C(C)(C)C)cc3)cc2)c2ccc(O)c(c2)-c2cc(ccc2O)C[C@@H](C(=O)O)NC1=O [EXAMPLE 42],< 10 nM,H (H: SIC 0.062-1),,< 1 µg/mL,
CCCCCCCCCc1ccc(-c2ccc(C(=O)NCCC(=O)N3C[C@H](N)C[C@H]3C(=O)N(C)[C@@H]3C(=O)N[C@@H](C)C(=O)N[C@H](C(=O)O)Cc4ccc(O)c(c4)-c4cc3ccc4O)cc2)cc1 [EXAMPLE 40],< 10 nM,G (G: SIC <0.0625),,< 1 µg/mL,
C[C@@H]1NC(=O)[C@@H](N(C)C(=O)[C@H](CCCCN)NC(=O)CCNC(=O)c2ccc(-c3ccc(CC4CCCCC4)cc3)cc2)c2ccc(O)c(c2)-c2cc(ccc2O)C[C@@H](C(=O)O)NC1=O [EXAMPLE 27],< 10 nM,G (G: SIC <0.0625),,< 1 µg/mL,
CCCCCCCCCc1ccc(-c2ccc(C(=O)NCCC(=O)N[C@@H](CCCCN)C(=O)N(C)[C@@H]3C(=O)N[C@@H](C)C(=O)N[C@H](C(=O)O)Cc4ccc(O)c(c4)-c4cc3ccc4O)c(F)c2)cc1 [EXAMPLE 66],10 to 50 nM,G (G: SIC <0.0625),,< 1 µg/mL,
"CCCc1ccc(-c2ccc(C(=O)NCCC(=O)N[C@H](CCCCN)C(=O)N(C)[C@@H]3C(=O)N[C@@H](C)C(=O)N[C@H](CO)Cc4ccc(O)c(c4)-c4cc3ccc4O)cc2)cc1.O=C(O)C(F)(F)F (mixture of isomers) [EXAMPLE 5, (5R,S)-6-[[(7S,10S,13S)-3,18-dihydroxy-13-(hydroxymethyl)-10-methyl-8,11-dioxo-9,12-diazatricyclo[13.3.1.1^2,6]icosa-1(19),2(20),3,5,15,17-hexaen-7-yl](methyl)amino]-6-oxo-5-[(3-{[(4′-propylbiphenyl-4-yl)carbonyl]amino}propanoyl)amino]hexan-1-aminium trifluoroacetate]",,H (H: SIC 0.062-1),< 1 µg/mL,,< 10 nM
C[C@@H]1NC(=O)[C@@H](N(C)C(=O)[C@@H]2CCCN2C(=O)CCNC(=O)c2ccc(CCCCCCCCc3ccccc3)cc2)c2ccc(O)c(c2)-c2cc(ccc2O)C[C@@H](C(=O)O)NC1=O [EXAMPLE 59],< 10 nM,H (H: SIC 0.062-1),,1 to 8 µg/mL,
CCCCCCCCCc1ccc(-c2ccc(C(=O)NCCC(=O)N[C@@H](CCCCN)C(=O)N(C)[C@@H]3C(=O)N[C@@H](C)C(=O)N[C@H](C(=O)O)Cc4ccc(O)c(c4)-c4cc3ccc4O)cn2)cc1 [EXAMPLE 54],< 10 nM,G (G: SIC <0.0625),,< 1 µg/mL,
"CCCc1ccc(-c2ccc(C(=O)NCCC(=O)NC(CCCCN)C(=O)N(C)[C@@H]3C(=O)N[C@@H](C)C(=O)N[C@H](C(=O)O)Cc4cccc(c4)-c4cccc3c4)cc2)cc1.O=C(O)C(F)(F)F (stereo partly drawn) [EXAMPLE 9, 6-[[(7S,10S,13S)-13-carboxy-10-methyl-8,11-dioxo-9,12-diazatricyclo[13.3.1.1^2,6]icosa-1(19),2(20),3,5,15,17-hexaen-7-yl](methyl)amino]-6-oxo-5-[(3-{[(4′-propylbiphenyl-4-yl)carbonyl]amino}propanoyl)amino]hexan-1-aminium trifluoroacetate]",10 to 50 nM,H (H: SIC 0.062-1),> 8 µg/mL,,
"CCCCCCCCCCc1ccc2cc(C(=O)NCCC(=O)N[C@@H](CCCCN)C(=O)N(C)[C@@H]3C(=O)N[C@@H](C)C(=O)N[C@H](C(=O)O)Cc4ccc(O)c(c4)-c4cc3ccc4O)ccc2c1.O=C(O)C(F)(F)F [EXAMPLE 17, (5S)-6-[[(7S,10S,13S)-13-carboxy-3,18-dihydroxy-10-methyl-8,11-dioxo-9,12-diazatricyclo[13.3.1.1^2,6]icosa-1(19),2(20),3,5,15,17-hexaen-7-yl](methyl)amino]-5-({3-[(6-decyl-2-naphthoyl)amino]propanoyl}amino)-6-oxohexan-1-aminium trifluoroacetate]",< 10 nM,G (G: SIC <0.0625),< 1 µg/mL,,
"CCCCc1ccc(C#Cc2ccc(C(=O)NCCC(=O)NC(CCCCN)C(=O)N(C)[C@@H]3C(=O)N[C@@H](C)C(=O)N[C@H](C(=O)O)Cc4ccc(OC)c(c4)-c4cc3ccc4OC)cc2)cc1 (stereo partly drawn) [EXAMPLE 10, 5-{[3-({4-[(4-butylphenyl)ethynyl]benzoyl}amino)propanoyl]amino}-6-[[(7S,10S,13S)-13-carboxy-3,18-dimethoxy-10-methyl-8,11-dioxo-9,12-diazatricyclo[13.3.1.1^2,6]icosa-1(19),2(20),3,5,15,17-hexaen-7-yl](methyl)amino]-6-oxohexart-1-aminium trifluoroacetate]",< 10 nM,H (H: SIC 0.062-1),1 to 8 µg/mL,,
CCCCCCCc1ccc2cc(C(=O)NCCC(=O)N[C@@H](CCCCN)C(=O)N(C)[C@@H]3C(=O)N[C@@H](C)C(=O)N[C@H](C(=O)O)Cc4ccc(O)c(c4)-c4cc3ccc4O)cnc2c1 [EXAMPLE 61],10 to 50 nM,H (H: SIC 0.062-1),,< 1 µg/mL,
CCCCCCCOCc1ccc(-c2ccc(C(=O)NCCC(=O)N[C@@H](CCCCN)C(=O)N(C)[C@@H]3C(=O)N[C@@H](C)C(=O)N[C@H](C(=O)O)Cc4ccc(O)c(c4)-c4cc3ccc4O)cc2)cc1 [EXAMPLE 36],< 10 nM,G (G: SIC <0.0625),,< 1 µg/mL,
"CCCc1ccc(-c2ccc(C(=O)NCCC(=O)N3CCC[C@H]3C(=O)N(C)[C@@H]3C(=O)N[C@@H](C)C(=O)N[C@H](C(=O)O)Cc4ccc(O)c(c4)-c4cc3ccc4O)cc2)cc1 [EXAMPLE 12, (8S,11S,14S)-3,18-dihydroxy-11-methyl-14-(methyl{[(2S)-1-(3-{[(4′-propylbiphenyl-4-yl)carbonyl]amino}propanoyl)pyrrolidin-2-yl]carbonyl}amino)-10,13-dioxo-9,12-diazatricyclo[13.3.1.1^2,6]icosa-1(19),2(20),3,5,15,17-hexaene-8-carboxylic acid]",10 to 50 nM,H (H: SIC 0.062-1),> 8 µg/mL,,
CCCCCCCCc1ccc(-c2ccc(C(=O)NCCC(=O)N[C@@H](CCCCN)C(=O)N(C)[C@@H]3C(=O)N[C@@H](C)C(=O)N[C@H](C(=O)O)Cc4ccc(O)c(c4)-c4cc3ccc4O)cc2)cc1 [EXAMPLE 23],< 10 nM,G (G: SIC <0.0625),,< 1 µg/mL,
